Experimental data from PMC4382497, “Inverse Agonistic Action of 3-Iodothyronamine at the Human Trace Amine-Associated Receptor 5” (PLoS ONE, 2015).

Target: T1, hTAAR5 (Homo sapiens, UniProt O14804)
T1 construct: gene TAAR5; full length; N-terminal HA tag (YPYDVPDYA) and first 21 residues of bovine rhodopsin (Rho-tag) kept; vector pcDps; transient in HEK293 cells
T1 sequence (O14804 1-337): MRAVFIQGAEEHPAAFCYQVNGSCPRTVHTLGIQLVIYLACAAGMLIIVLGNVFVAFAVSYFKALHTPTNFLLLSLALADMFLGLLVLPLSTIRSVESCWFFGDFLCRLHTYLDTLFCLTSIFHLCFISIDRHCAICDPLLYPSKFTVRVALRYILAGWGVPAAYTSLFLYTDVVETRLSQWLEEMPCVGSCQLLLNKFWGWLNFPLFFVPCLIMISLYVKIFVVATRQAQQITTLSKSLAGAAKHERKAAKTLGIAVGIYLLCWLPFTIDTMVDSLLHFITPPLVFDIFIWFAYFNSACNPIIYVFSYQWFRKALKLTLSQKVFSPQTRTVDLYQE
Experiment: NFAT-RE luciferase reporter (IP3-luc), HEK293
Type: cell-based
Settings: inverse agonist; reduction of basal Gq/11 (IP3) signaling; 6 h, 37 °C; 1 nM to 100 μM

NCCc1ccc(Oc2ccc(O)cc2)c(I)c1 [3-T1AM]
EC50: 4.4 ± 0.9 µM
